Measured values from patent US10307357B2, “Prebiotic oral care compositions containing an alkyl glycoside” (COLGATE-PALMOLIVE COMPANY, priority 2013, dated 2019).

What was measured:
Assay type in all cases: cell-based
[1] = tested on: Actinomyces viscosus; experiment: Phenotype microarray metabolic activity; conditions: control = 1
Method: (§1) The extent of metabolic activity of the tested bacteria in the presence of the above-mentioned glycosides after 24 hours and 48 hours was investigated through a high throughput phenotype microarray system (PM) for microbial cells (Biolog Inc.). Each PM can contain up to 95 different biochemical compounds (e.g. glycosides) that may act as substrates for bacteria as well as one negative control, not containing the substrates. Microarray plates were used in which the different wells of each plate were pre-loaded (by the manufacturer, Biolog Inc.) with different glycosides to be tested. Each bacterial species was tested using a separate microarray plate. Thus, a single bacterial species was tested with a variety of glycosides on each particular plate. The microarrays are based on redox technology, using cell respiration as a universal reporter. Active cell respiration results in the reduction of a tetrazolium dye and in the formation of a strong color—for example, when using the tetrazolium dye “Biolog Redox Dye Mix D”, the color changes from transparent/colorless to purple when the dye is reduced. The observation of this color change indicates which of the substrates improve the metabolic activity and health of the cells. Each bacterial species was collected from blood agar plates (incubated for 48 hours anaerobically at 37° C.) and transferred to an IF-0 Base inoculation fluid (Biolog Inc.), which is a nutritionally poor medium. The resulting cell suspension was adjusted to a transmittance of 42% (relative to the transmittance of the base inoculation fluid with no bacterial species present) at 492 nm using a BioRad SmartSpec 3000 Photometer (the adjustment being effected by adding either further inoculation fluid or further bacteria until the transmittance of 42% was achieved). A 1:5 dilution of this suspension was prepared by mixing 3 mL of the 42% transmittance cell suspension with […] of an inoculation fluid (which inoculation fluid was formed by mixing 11.6 mL sterile water, 62.5 mL IF-0 base inoculation fluid and 0.9 mL of the tetrazolium dye “Biolog Redox Dye mix D”), resulting in a final cell density which was equal to 85% transmittance using a BioRad SmartSpec 3000 Photometer. For each of the glycosides tested, the microarray plate (obtained from the supplier (Biolog Inc.) with glycosides already present in the relevant wells in powder form) was directly inoculated with 100 μL/well of this 85% transmittance cell suspension. All plates were incubated in an anaerobic atmosphere at 37° C. Color changes were measured spectrophotometrically at 492 nm (Thermo Scientific Multiskan Ascent) at 24 hrs and 48 hrs using the same plate at both time points. […] After 24 hrs and 48 hrs under continuous shaking in a Multiscan microplate reader, the optical density (OD) of the synthetic medium at 24 hours and 48 hours was measured (using the microplate reader) at a wavelength of 492 nm for each combination of bacterium/glycoside, and for each of their respective controls (i.e. which contained the particular bacterium but no glycosides). […] The experiment was carried out three times for each combination of bacterium with glycosides, with each repeat being carried out on a different day (thus providing three biological replicas). The controls were also carried out three times, as above. The values shown are the average (mean) of the three single values obtained (as detailed above) for each combination of bacterium with glycosides, at 24 hrs and at 48 hrs.

[2] = tested on: Fusobacterium nucleatum; experiment: Phenotype microarray metabolic activity; conditions: control = 1
Method: as §1

[3] = tested on: Prevotella intermedia; experiment: Phenotype microarray metabolic activity; conditions: control = 1
Method: as §1

[4] = tested on: Streptococcus mutans; experiment: Phenotype microarray metabolic activity; conditions: control = 1
Method: as §1

[5] = tested on: Streptococcus salivarius; experiment: Phenotype microarray metabolic activity; conditions: control = 1
Method: as §1

[6] = tested on: beneficial oral bacteria and pathogenic oral bacteria; experiment: Microarray screen, conclusion over the panel; conditions: at 24 hrs and at 48 hrs; threshold 2
Method: Substrates that were able to increase the metabolic activity of at least one of the above beneficial bacteria while not or only minimally increasing the growth of the pathogenic bacteria are considered to be prebiotic substrates. The extent of metabolic activity of the tested bacteria in the presence of the above-mentioned glycosides after 24 hours and 48 hours was investigated through a high throughput phenotype microarray system (PM) for microbial cells (Biolog Inc.). Each PM can contain up to 95 different biochemical compounds (e.g. glycosides) that may act as substrates for bacteria as well as one negative control, not containing the substrates. Microarray plates were used in which the different wells of each plate were pre-loaded (by the manufacturer, Biolog Inc.) with different glycosides to be tested. […] Color changes were measured spectrophotometrically at 492 nm (Thermo Scientific Multiskan Ascent) at 24 hrs and 48 hrs using the same plate at both time points. […] After 24 hrs and 48 hrs under continuous shaking in a Multiscan microplate reader, the optical density (OD) of the synthetic medium at 24 hours and 48 hours was measured (using the microplate reader) at a wavelength of 492 nm for each combination of bacterium/glycoside, and for each of their respective controls (i.e. which contained the particular bacterium but no glycosides). […]

In the case of `CO[C@H]1O[C@H](CO)[C@H](O)[C@H](O)[C@H]1O` [α-methyl-D-galactoside], the “OD 492 nm divided by control (metabolic activity)” value (shortened to “OD 492 nm divided by control”) ([1]; 24 hrs) was 2.4728, the “OD 492 nm divided by control” value ([1]; 48 hrs) was 3.3823 and the “OD 492 nm divided by control” value ([2]; 24 hrs) was 0.8949. The “OD 492 nm divided by control” value ([2]; 48 hrs) was 0.8204, the “OD 492 nm divided by control” value ([3]; 24 hrs) was 0.9609 and the “OD 492 nm divided by control” value ([3]; 48 hrs) was 0.9269. For the same compound, the “OD 492 nm divided by control” value ([4]; 24 hrs) was 1.0573, the “OD 492 nm divided by control” value ([4]; 48 hrs) was 0.9904 and the “OD 492 nm divided by control” value ([5]; 24 hrs) was 0.9677. The “OD 492 nm divided by control” value ([5]; 48 hrs) was 0.8829 and the “prebiotic effect (metabolic activity), in words” value [6] was “exhibited prebiotic effects”.
For `CO[C@@H]1O[C@H](CO)[C@H](O)[C@H](O)[C@H]1O` [β-methyl-D-galactoside], the “OD 492 nm divided by control” value ([1]; 24 hrs) was 2.8391, the “OD 492 nm divided by control” value ([1]; 48 hrs) was 3.9827 and the “OD 492 nm divided by control” value ([2]; 24 hrs) was 0.9051. The “OD 492 nm divided by control” value ([2]; 48 hrs) was 0.7899, the “OD 492 nm divided by control” value ([3]; 24 hrs) was 1.0543 and the “OD 492 nm divided by control” value ([3]; 48 hrs) was 1.0046. The “OD 492 nm divided by control” value ([4]; 24 hrs) was 1.1594, the “OD 492 nm divided by control” value ([4]; 48 hrs) was 1.0780 and the “OD 492 nm divided by control” value ([5]; 24 hrs) was 6.9837. For the same compound, the “OD 492 nm divided by control” value ([5]; 48 hrs) was 6.4661 and the “prebiotic effect (metabolic activity), in words” value [6] was “exhibited prebiotic effects”.
